# Values quoted from earlier work in PMC9851200, “Multiparameter phenotypic screening for endogenous TFEB and TFE3 translocation identifies novel chemical series modulating lysosome function” (Autophagy, 2022).
# Experiments:
# Parameters in all cases: method as in original PKIS2 published data
# [1] = target: kinases (KINOMEscan panel) (Homo sapiens, UniProt P11802); conditions: Published KINOMEscan, ref original PKIS2 published data, cited from earlier work
# [2] = target: kinases (KINOMEscan panel) (Homo sapiens, UniProt P43405); conditions: SYK; Published KINOMEscan; ref original PKIS2 published data; cited from earlier work
# [3] = target: kinases (KINOMEscan panel) (Homo sapiens, UniProt Q9H2X6); conditions: Published KINOMEscan; ref original PKIS2 published data; cited from earlier work
# Sequence of kinases (KINOMEscan panel) (Homo sapiens, UniProt Q9H2X6) (Q9H2X6 whole entry): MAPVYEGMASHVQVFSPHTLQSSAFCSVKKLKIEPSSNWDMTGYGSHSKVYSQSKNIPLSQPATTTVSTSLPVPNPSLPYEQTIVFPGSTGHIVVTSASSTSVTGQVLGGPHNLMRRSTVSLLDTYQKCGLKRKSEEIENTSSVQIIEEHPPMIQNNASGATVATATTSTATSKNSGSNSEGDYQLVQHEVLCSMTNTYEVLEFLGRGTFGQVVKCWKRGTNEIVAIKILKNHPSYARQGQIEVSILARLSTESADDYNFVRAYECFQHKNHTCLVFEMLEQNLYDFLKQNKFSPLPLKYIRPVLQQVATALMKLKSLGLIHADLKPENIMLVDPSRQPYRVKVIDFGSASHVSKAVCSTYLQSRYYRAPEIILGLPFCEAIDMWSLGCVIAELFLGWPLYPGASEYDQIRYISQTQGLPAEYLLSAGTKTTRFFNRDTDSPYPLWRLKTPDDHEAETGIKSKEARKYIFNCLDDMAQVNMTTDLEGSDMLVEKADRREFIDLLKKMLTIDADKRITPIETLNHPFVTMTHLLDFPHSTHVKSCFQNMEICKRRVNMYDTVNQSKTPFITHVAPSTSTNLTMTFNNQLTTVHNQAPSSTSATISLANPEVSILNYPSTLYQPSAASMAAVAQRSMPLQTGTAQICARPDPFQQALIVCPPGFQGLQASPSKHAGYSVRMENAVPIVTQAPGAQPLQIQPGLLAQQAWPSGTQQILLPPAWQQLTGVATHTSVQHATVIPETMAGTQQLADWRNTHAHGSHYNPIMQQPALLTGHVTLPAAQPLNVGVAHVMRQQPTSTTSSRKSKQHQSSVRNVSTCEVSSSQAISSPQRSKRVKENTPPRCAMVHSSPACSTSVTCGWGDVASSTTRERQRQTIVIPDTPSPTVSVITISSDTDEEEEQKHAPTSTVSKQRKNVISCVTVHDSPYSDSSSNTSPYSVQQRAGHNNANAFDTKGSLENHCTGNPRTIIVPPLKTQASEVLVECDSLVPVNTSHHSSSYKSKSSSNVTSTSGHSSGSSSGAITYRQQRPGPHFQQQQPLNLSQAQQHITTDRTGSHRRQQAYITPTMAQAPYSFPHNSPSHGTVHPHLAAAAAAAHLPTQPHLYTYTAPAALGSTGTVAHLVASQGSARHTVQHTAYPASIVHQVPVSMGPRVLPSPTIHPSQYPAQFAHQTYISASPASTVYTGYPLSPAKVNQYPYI
# [4] = target: T1, kinases (KINOMEscan panel) (Homo sapiens, UniProt Q8TBX8); conditions: PIP4K2C; Published KINOMEscan; ref original PKIS2 published data; cited from earlier work
# T1 sequence (Q8TBX8 1-421): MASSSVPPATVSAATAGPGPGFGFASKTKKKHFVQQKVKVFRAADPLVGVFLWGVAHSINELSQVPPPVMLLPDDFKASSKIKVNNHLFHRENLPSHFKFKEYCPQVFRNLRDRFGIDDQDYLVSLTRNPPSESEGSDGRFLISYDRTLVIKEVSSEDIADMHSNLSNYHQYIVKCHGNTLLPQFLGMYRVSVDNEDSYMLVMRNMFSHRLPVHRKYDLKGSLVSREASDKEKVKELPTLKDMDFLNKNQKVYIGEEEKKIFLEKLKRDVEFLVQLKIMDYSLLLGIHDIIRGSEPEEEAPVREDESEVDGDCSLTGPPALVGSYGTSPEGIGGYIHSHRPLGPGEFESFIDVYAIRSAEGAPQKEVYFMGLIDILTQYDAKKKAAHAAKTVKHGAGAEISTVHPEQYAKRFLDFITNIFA
# [5] = target: T2, kinases (KINOMEscan panel) (Homo sapiens, UniProt Q56UN5); conditions: Published KINOMEscan; ref original PKIS2 published data; cited from earlier work
# T2 sequence (Q56UN5 1-1328): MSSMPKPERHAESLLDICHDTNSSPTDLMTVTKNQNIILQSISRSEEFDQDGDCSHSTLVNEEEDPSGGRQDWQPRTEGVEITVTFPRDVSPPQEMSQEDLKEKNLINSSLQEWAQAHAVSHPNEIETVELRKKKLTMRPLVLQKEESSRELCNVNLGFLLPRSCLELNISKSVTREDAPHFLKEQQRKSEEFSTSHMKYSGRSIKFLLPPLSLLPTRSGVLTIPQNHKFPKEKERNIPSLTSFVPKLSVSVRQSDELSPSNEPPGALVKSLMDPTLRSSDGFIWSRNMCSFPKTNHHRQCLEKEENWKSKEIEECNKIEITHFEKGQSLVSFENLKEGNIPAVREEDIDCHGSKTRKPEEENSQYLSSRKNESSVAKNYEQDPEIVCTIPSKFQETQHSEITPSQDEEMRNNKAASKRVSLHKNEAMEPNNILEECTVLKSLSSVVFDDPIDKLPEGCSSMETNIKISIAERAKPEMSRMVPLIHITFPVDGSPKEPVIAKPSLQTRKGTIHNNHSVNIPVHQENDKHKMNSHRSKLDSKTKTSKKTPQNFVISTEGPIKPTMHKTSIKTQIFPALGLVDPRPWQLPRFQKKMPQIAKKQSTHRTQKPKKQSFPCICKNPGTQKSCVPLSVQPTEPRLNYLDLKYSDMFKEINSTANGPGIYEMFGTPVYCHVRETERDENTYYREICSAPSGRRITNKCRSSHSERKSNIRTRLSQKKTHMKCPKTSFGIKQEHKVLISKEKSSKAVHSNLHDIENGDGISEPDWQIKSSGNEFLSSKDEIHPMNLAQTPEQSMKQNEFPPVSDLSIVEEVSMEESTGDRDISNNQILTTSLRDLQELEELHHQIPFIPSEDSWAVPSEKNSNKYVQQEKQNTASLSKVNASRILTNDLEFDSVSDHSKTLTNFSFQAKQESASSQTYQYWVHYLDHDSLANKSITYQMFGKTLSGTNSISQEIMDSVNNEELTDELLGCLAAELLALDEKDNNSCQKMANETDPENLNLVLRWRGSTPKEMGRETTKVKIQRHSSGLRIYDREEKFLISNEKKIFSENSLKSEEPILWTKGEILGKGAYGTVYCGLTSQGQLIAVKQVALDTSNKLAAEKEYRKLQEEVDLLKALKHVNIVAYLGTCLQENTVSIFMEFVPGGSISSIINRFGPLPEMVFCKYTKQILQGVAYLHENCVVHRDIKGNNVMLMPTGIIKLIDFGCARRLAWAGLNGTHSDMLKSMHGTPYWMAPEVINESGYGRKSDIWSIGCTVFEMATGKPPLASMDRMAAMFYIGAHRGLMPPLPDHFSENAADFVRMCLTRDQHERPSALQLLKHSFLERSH
# [6] = target: kinases (KINOMEscan panel) (Homo sapiens, UniProt Q04759); conditions: kinase PRKCQ; Published KINOMEscan; ref original PKIS2 published data; cited from earlier work
# Sequence of kinases (KINOMEscan panel) (Homo sapiens, UniProt Q04759) (Q04759 whole entry): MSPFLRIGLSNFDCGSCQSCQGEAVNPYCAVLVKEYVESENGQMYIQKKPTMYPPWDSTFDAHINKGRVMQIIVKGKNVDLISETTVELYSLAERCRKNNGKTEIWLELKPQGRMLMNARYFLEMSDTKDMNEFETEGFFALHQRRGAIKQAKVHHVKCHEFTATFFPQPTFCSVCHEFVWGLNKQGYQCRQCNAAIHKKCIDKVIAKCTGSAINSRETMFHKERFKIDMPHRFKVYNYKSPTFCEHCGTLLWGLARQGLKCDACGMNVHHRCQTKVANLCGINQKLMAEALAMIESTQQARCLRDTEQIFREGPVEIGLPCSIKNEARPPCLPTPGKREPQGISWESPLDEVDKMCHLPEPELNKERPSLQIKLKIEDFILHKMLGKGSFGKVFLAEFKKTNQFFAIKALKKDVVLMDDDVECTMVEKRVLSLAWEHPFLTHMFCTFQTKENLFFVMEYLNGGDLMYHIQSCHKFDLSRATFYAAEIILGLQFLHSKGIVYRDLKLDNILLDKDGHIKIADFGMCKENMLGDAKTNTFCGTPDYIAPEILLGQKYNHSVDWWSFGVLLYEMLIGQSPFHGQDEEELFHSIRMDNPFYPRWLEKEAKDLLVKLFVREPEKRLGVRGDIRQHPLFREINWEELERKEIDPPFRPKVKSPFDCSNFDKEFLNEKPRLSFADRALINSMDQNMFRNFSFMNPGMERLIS
# Sequence of kinases (KINOMEscan panel) (Homo sapiens, UniProt P11802) (P11802 whole entry): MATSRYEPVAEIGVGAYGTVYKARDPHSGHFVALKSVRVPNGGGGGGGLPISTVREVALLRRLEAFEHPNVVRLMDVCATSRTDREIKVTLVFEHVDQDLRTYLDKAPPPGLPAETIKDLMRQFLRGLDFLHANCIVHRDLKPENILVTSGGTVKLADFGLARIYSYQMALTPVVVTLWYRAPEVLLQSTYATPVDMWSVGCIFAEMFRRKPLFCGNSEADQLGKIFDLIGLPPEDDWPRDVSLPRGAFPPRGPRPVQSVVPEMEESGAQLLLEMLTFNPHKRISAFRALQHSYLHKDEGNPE
smiles,measurement,setting,value
Cc1cccc(-c2nc(Nc3ccncc3)c3ccccc3n2)n1 [NK215],KINOMEscan CDK4-cyclinD1 (???) CCND1,[1]; CDK4-cyclinD1 (???) CCND1,13
same,KINOMEscan CDK4-cyclinD3,[1]; kinase CDK4-cyclinD3,0
same,KINOMEscan CDK4,[1]; kinase CDK4,0
same,KINOMEscan SYK,[2],14
same,KINOMEscan HIPK2,[3],0
same,KINOMEscan PIP4K2C,[4],18
same,KINOMEscan MAP3K19,[5],0
same,KINOMEscan PRKCQ,[6],0
